Test results as given in ChEMBL document CHEMBL5537115, “New broad-spectrum and potent antibacterial agents with dual-targeting mechanism: Promoting FtsZ polymerization and disrupting bacterial membranes” (Eur J Med Chem, 2024).
Values after ≈ are worked out from the molar mass of the structure shown.

How the values were obtained:
Assay type in all cases: functional
Streptococcus pyogenes [1] = assay: Antibacterial activity against erythromycin-resistant Streptococcus pyogenes 2 clinical isolate assessed as bacterial growth inhibition incubated for 20 hrs by CLSI based broth microdilution method
[2] = test system: Staphylococcus epidermidis; assay: Antibacterial activity against penicillin-resistant Staphylococcus epidermidis clinical isolate assessed as bacterial growth inhibition incubated for 20 hrs by CLSI based broth microdilution method
Staphylococcus aureus [3] = assay: Antibacterial activity against Staphylococcus aureus clinical isolate assessed as bacterial growth inhibition incubated for 20 hrs by CLSI based broth microdilution method
Staphylococcus aureus [4] = assay: Antibacterial activity against penicillin-resistant Staphylococcus aureus ATCC31007 assessed as bacterial growth inhibition incubated for 20 hrs by CLSI based broth microdilution method
Staphylococcus aureus [5] = assay: Antibacterial activity against methicillin-resistant Staphylococcus aureus ATCC43300 assessed as bacterial growth inhibition incubated for 20 hrs by CLSI based broth microdilution method
Klebsiella pneumoniae = assay: Antibacterial activity against Klebsiella pneumoniae ATCC BAA-1902 assessed as bacterial growth inhibition incubated for 20 hrs by CLSI based broth microdilution method
Acinetobacter baumannii = assay: Antibacterial activity against Acinetobacter baumannii ATCC19606 assessed as bacterial growth inhibition incubated for 20 hrs by CLSI based broth microdilution method
Escherichia coli [6] = assay: Antibacterial activity against wild-type Escherichia coli BW25113 assessed as bacterial growth inhibition incubated for 20 hrs by CLSI based broth microdilution method
Escherichia coli [7] = assay: Antibacterial activity against penicillin-susceptible Escherichia coli ATCC25922 assessed as bacterial growth inhibition incubated for 20 hrs by CLSI based broth microdilution method
Enterococcus faecium [8] = assay: Antibacterial activity against vancomycin-susceptible Enterococcus faecium ATCC19434 assessed as bacterial growth inhibition incubated for 20 hrs by CLSI based broth microdilution method
Enterococcus faecalis [9] = assay: Antibacterial activity against vancomycin-susceptible Enterococcus faecalis ATCC29212 assessed as bacterial growth inhibition incubated for 20 hrs by CLSI based broth microdilution method
Streptococcus pyogenes [10] = assay: Antibacterial activity against erythromycin-susceptible Streptococcus pyogenes 1 assessed as bacterial growth inhibition incubated for 20 hrs by CLSI based broth microdilution method
Staphylococcus aureus [11] = assay: Antibacterial activity against erythromycin-susceptible Staphylococcus aureus ATCC25923 assessed as bacterial growth inhibition incubated for 20 hrs by CLSI based broth microdilution method
Bacillus pumilus = assay: Antibacterial activity against penicillin-susceptible Bacillus pumilus CMCC63202 assessed as bacterial growth inhibition incubated for 20 hrs by CLSI based broth microdilution method
Bacillus subtilis = assay: Antibacterial activity against penicillin-susceptible Bacillus subtilis ATCC9372 assessed as bacterial growth inhibition incubated for 20 hrs by CLSI based broth microdilution method
Enterococcus faecalis [12] = assay: Antibacterial activity against vancomycin-resistant Enterococcus faecalis ATCC51299 assessed as bacterial growth inhibition incubated for 20 hrs by CLSI based broth microdilution method
Enterococcus faecium [13] = assay: Antibacterial activity against vancomycin-resistant Enterococcus faecium ATCC51559 assessed as bacterial growth inhibition incubated for 20 hrs by CLSI based broth microdilution method

| SMILES | MIC (Streptococcus pyogenes [1]) [µg/mL] | MIC [2] [µg/mL] | MIC (Staphylococcus aureus [3]) [µg/mL] | MIC (Staphylococcus aureus [4]) [µg/mL] | MIC (Staphylococcus aureus [5]) [µg/mL] | MIC (Klebsiella pneumoniae) [µg/mL] | MIC (Acinetobacter baumannii) [µg/mL] | MIC (Escherichia coli [6]) [µg/mL] | MIC (Escherichia coli [7]) [µg/mL] | MIC (Enterococcus faecium [8]) [µg/mL] | MIC (Enterococcus faecalis [9]) [µg/mL] | MIC (Streptococcus pyogenes [10]) [µg/mL] | MIC (Staphylococcus aureus [11]) [µg/mL] | MIC (Bacillus pumilus) [µg/mL] | MIC (Bacillus subtilis) [µg/mL] | MIC (Enterococcus faecalis [12]) [µg/mL] | MIC (Enterococcus faecium [13]) [µg/mL] |
| --- | --- | --- | --- | --- | --- | --- | --- | --- | --- | --- | --- | --- | --- | --- | --- | --- | --- |
| C[n+]1cc(-c2ccccc2)c(/C=C/c2ccc(F)cc2)cc1-c1ccccc1.[I-] | 2 | 2 | 1 | 4 | 1 | 32 | 8 | 8 | 8 | 4 | 4 | 2 | 0.125 | 2 | 0.5 | 2 | 8 |
| C[n+]1cc(-c2ccccc2)cc(/C=C/c2ccc(Cl)c(Cl)c2)c1-c1ccccc1.[I-] | 2 | 8 | 2 | 8 | 2 | > 64 | 2 | 64 | 64 | 8 | 8 | 2 | 0.5 | 4 | 0.5 | 8 | 8 |
| Cc1ccc(/C=C/c2cc(-c3ccccc3)c[n+](C)c2-c2ccccc2)cc1.[I-] | 4 | 32 | 2 | 32 | 4 | > 64 | 32 | > 64 | > 64 | 32 | 16 | 4 | 1 | 16 | 2 | 32 | 16 |
| CCCCCCOc1ccc(/C=C/c2cc(-c3ccccc3)[n+](C)cc2-c2ccccc2)cc1.[I-] | 2 | 2 | 0.5 | 2 | 2 | 8 | 4 | 4 | 4 | 2 | 2 | 2 | 0.5 | 0.5 | 0.5 | 2 | 1 |
| C[n+]1cc(-c2ccccc2)cc(/C=C/c2ccc(C#N)cc2)c1-c1ccccc1.[I-] | 32 | > 64 | 32 | > 64 | 64 | > 64 | 64 | > 64 | > 64 | > 64 | > 64 | 32 | 8 | > 64 | 32 | > 64 | > 64 |
| Cc1ccc(/C=C/c2cc(-c3ccc(C(C)(C)C)cc3)[n+](C)cc2-c2ccccc2C)cc1.[I-] | 4 | 2 | 0.5 | 2 | 0.5 | 8 | 4 | 8 | 8 | 2 | 4 | 2 | 1 | 1 | 0.5 | 2 | 2 |
| C[n+]1cc(-c2ccccc2)cc(/C=C/c2ccc(F)cc2)c1-c1ccccc1.[I-] | 8 | 64 | 8 | 64 | 8 | > 64 | 32 | > 64 | > 64 | 64 | 64 | 8 | 2 | 32 | 8 | > 64 | 64 |
| CCCCCCOc1ccc(/C=C/c2cc(-c3ccccc3)c[n+](C)c2-c2ccccc2)cc1.[I-] | 2 | 2 | 1 | 2 | 1 | > 64 | 2 | 4 | 8 | 2 | 2 | 2 | 0.25 | 0.5 | 2 | 1 | 2 |
| C=CC1=C(C(=O)O)N2C(=O)[C@@H](NC(=O)/C(=N\OCC(=O)O)c3csc(N)n3)[C@H]2SC1 [CEFIXIME] | < 0.062 | > 64 | 8 (≈ 17.6 µM) | > 64 | 4 (≈ 8.82 µM) | > 64 | 32 (≈ 70.6 µM) | < 0.062 | < 0.062 | > 64 | > 64 | < 0.062 | 1 (≈ 2.21 µM) | > 64 | 2 (≈ 4.41 µM) | > 64 | > 64 |
| CN(C)[C@@H]1C(O)=C(C(N)=O)C(=O)[C@@]2(O)C(O)=C3C(=O)c4c(O)cccc4[C@@](C)(O)[C@H]3C[C@@H]12 [TETRACYCLINE] | 64 (≈ 144 µM) | 32 (≈ 72 µM) | 1 (≈ 2.25 µM) | 64 (≈ 144 µM) | 0.5 (≈ 1.13 µM) | 32 (≈ 72 µM) | 8 (≈ 18 µM) | 2 (≈ 4.5 µM) | 0.5 (≈ 1.13 µM) | 2 (≈ 4.5 µM) | 64 (≈ 144 µM) | 1 (≈ 2.25 µM) | 0.5 (≈ 1.13 µM) | 64 (≈ 144 µM) | 0.5 (≈ 1.13 µM) | 2 (≈ 4.5 µM) | 2 (≈ 4.5 µM) |
| COc1ccc2cc3[n+](cc2c1OC)CCc1cc2c(cc1-3)OCO2 [BERBERINE] | > 64 | > 64 | 64 | > 64 | > 64 | > 64 | > 64 | > 64 | > 64 | > 64 | > 64 | > 64 | 64 | > 64 | > 64 | > 64 | > 64 |
| CN[C@H](CC(C)C)C(=O)N[C@H]1C(=O)N[C@@H](CC(N)=O)C(=O)N[C@H]2C(=O)N[C@H]3C(=O)N[C@H](C(=O)N[C@H](C(=O)O)c4cc(O)cc(O)c4-c4cc3ccc4O)[C@H](O)c3ccc(c(Cl)c3)Oc3cc2cc(c3O[C@@H]2O[C@H](CO)[C@@H](O)[C@H](O)[C@H]2O[C@H]2C[C@](C)(N)[C@H](O)[C@H](C)O2)Oc2ccc(cc2Cl)[C@H]1O [VANCOMYCIN] | 1 (≈ 0.69 µM) | – | – | – | – | > 64 | 64 (≈ 44.2 µM) | > 64 | > 64 | – | – | 0.25 (≈ 0.173 µM) | – | 2 (≈ 1.38 µM) | 0.5 (≈ 0.345 µM) | > 64 | > 64 |
| CCCCCOc1ccc(/C=C/c2cc(-c3ccccc3)[n+](C)cc2-c2ccccc2)cc1.[I-] | 2 | 1 | 0.5 | 1 | 1 | 4 | 2 | 2 | 4 | 0.5 | 2 | 2 | 0.5 | 0.5 | 0.5 | 1 | 1 |
| CC(=O)Nc1ccc(/C=C/c2cc(-c3ccc4ccccc4c3)[n+](C)cc2-c2ccccc2)cc1.[I-] | – | – | 1 | – | – | > 64 | 32 | > 64 | > 64 | 32 | 16 | – | 0.5 | 16 | 1 | – | – |
